Source: US6806230B1, “Pyrimidine derivatives and herbicides containing them” (Kumiai Chemical Industry Co., Ltd., priority 1999, dated 2004)

Assays:
Format in all cases: in vivo
barnyard grass (Ec) [1] = assay: Test Example 3: herbicidal effects by foliage treatment in upland field; parameters: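 0-5 growth inhibition grade; 5 = over 90%; 4 = 70-90%; 3 = 50-70%; 2 = 30-50%; 1 = 10-30%; 0 = under 10%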; conditions: dose 100 g active ingredient per 10 ares, examined on the 14th day after treatment
Method in brief: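 Barnyard grass and green foxtail were grown in upland soil for 2 weeks in a greenhouse. A water-diluted wettable powder was sprayed over the foliage at 100 l per 10 ares, giving 100 g active ingredient per 10 ares. Herbicidal effect was scored on day 14 after treatment.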

barnyard grass (Ec) [2] = assay: Test Example 2: herbicidal effects by upland soil treatment; parameters: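 0-5 growth inhibition grade; 5 = over 90%; 4 = 70-90%; 3 = 50-70%; 2 = 30-50%; 1 = 10-30%; 0 = under 10%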; conditions: dose 100 g active ingredient per 10 ares, examined on the 21st day after treatment, standards of Table 44
Method in brief: (§1)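 Pre-emergence test: barnyard grass and green foxtail sown in upland soil, then soil surface sprayed with wettable-powder formulation at 100 g active ingredient per 10 ares (100 l per 10 ares). Grown in greenhouse; herbicidal effect scored on a rating scale 21 days after treatment.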

barnyard grass (Eo) [3] = assay: Test Example 1: herbicidal effects by flooded paddy field treatment; parameters: herbicidal effects, Eo (barnyard grass):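 0-5 growth inhibition grade; 5 = over 90%; 4 = 70-90%; 3 = 50-70%; 2 = 30-50%; 1 = 10-30%; 0 = under 10%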; conditions: for Herbicidal effect index, Eo: dose 100 gai/10a, examined on 21st day after treatment, index 0-5 per Table 44; for herbicidal effects, Eo (barnyard grass): dose 100 g active ingredient per 10 ares, examined on the 21st day after treatment, standards of Table 44;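 as to Herbicidal effect index, Eo: 0-5 growth inhibition grade; 5 = over 90%; 4 = 70-90%; 3 = 50-70%; 2 = 30-50%; 1 = 10-30%; 0 = under 10%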
Method in brief: (§2)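 Herbicidal effect scored 21 days post-treatment after greenhouse cultivation. Treatment was applied dropwise to the water surface, one day after sowing, as a diluted wettable powder (100 g a.i./10 ares). Pots held puddled paddy soil under 3 cm water.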

green foxtail (Se) = assay: Test Example 2: herbicidal effects by upland soil treatment; conditions: dose 100 g active ingredient per 10 ares, examined on the 21st day after treatment, standards of Table 44;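 also: 0-5 growth inhibition grade; 5 = over 90%; 4 = 70-90%; 3 = 50-70%; 2 = 30-50%; 1 = 10-30%; 0 = under 10%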
Method in brief: as §1

monochoria (Mo) [4] = assay: Test Example 1: herbicidal effects by flooded paddy field treatment; parameters: herbicidal effects, Mo (monochoria):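 0-5 growth inhibition grade; 5 = over 90%; 4 = 70-90%; 3 = 50-70%; 2 = 30-50%; 1 = 10-30%; 0 = under 10%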; conditions: for Herbicidal effect index, Mo: dose 100 gai/10a, examined on 21st day after treatment, index 0-5 per Table 44; for herbicidal effects, Mo (monochoria): dose 100 g active ingredient per 10 ares, examined on the 21st day after treatment, standards of Table 44;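 as to Herbicidal effect index, Mo: 0-5 growth inhibition grade; 5 = over 90%; 4 = 70-90%; 3 = 50-70%; 2 = 30-50%; 1 = 10-30%; 0 = under 10%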
Method in brief: as §2

rice (Or) = assay: Test Example 4: selectivity for a crop plant by flooded paddy field treatment; parameters: scale not given here; conditions: rice transplanted at second leaf stage; for Or (herbicidal effect index on crop): dose 25 gai/10a, 21st day after treatment, index per Table 44; for Or (effect on crop plant rice, index): dose 25 g active ingredient per 10 ares, examined on the 21st day after treatment
Method in brief: (§3)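 Flooded-paddy treatment: the wettable powder formulation, diluted in water, was applied dropwise to 3 cm floodwater at 25 g a.i./10 ares one day after sowing barnyard grass and monochoria and transplanting rice at the second leaf stage. Greenhouse grown; herbicidal effect rated against set standards on day 21.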

barnyard grass (Eo) [5] = assay: as above; parameters: scale not given here; conditions: for Eo (herbicidal effect index): barnyard grass, dose 25 gai/10a, 21st day after treatment, index per Table 44; for Eo (herbicidal effects, index): dose 25 g active ingredient per 10 ares, examined on the 21st day after treatment
Method in brief: as §3

monochoria (Mo) [6] = assay: as above; parameters: scale not given here; conditions: for Mo (herbicidal effect index): monochoria, dose 25 gai/10a, 21st day after treatment, index per Table 44; for Mo (herbicidal effects, index): dose 25 g active ingredient per 10 ares, examined on the 21st day after treatment
Method in brief: as §3

Row | Compound | Ec (herbicidal effects, index) (barnyard grass (Ec) [1]) | herbicidal effects, Ec (barnyard grass) (barnyard grass (Ec) [2]) | Herbicidal effect index, Eo (barnyard grass (Eo) [3]) | herbicidal effects, Se (green foxtail) (green foxtail (Se)) | Herbicidal effect index, Mo (monochoria (Mo) [4]) | herbicidal effects, Eo (barnyard grass) (barnyard grass (Eo) [3]) | herbicidal effects, Mo (monochoria) (monochoria (Mo) [4]) | Or (herbicidal effect index on crop) (rice (Or)) | Eo (herbicidal effect index) (barnyard grass (Eo) [5]) | Mo (herbicidal effect index) (monochoria (Mo) [6]) | Or (effect on crop plant rice, index) (rice (Or)) | Eo (herbicidal effects, index) (barnyard grass (Eo) [5]) | Mo (herbicidal effects, index) (monochoria (Mo) [6])
1 | Cc1ncncc1C(C(C)C)N(C)C(=O)Cc1ccc(F)cc1 (racemic) [Compound 1-88] | 4 | 5 | 5 | 5 | 5 | – | – | – | – | – | – | – | –
2 | CC(C(=O)N(C)C(c1cncnc1C(F)(F)F)C(C)C)c1ccccc1 (mixture of isomers) [1-195] | 5 | 5 | – | 5 | – | 5 | 5 | – | – | – | – | – | –
3 | CC(C)c1ncncc1C(c1ccccc1)N(C)C(=O)Cc1ccc(F)cc1 (racemic) [1-214] | 4 | 5 | – | 5 | – | 5 | 5 | – | – | – | – | – | –
4 | CC(C(=O)N(C)C(c1cncnc1C(F)(F)F)C(C)C)c1ccc(F)cc1 (mixture of isomers) [1-198] | 4 | 5 | – | 5 | – | 5 | 5 | – | – | – | – | – | –
5 | CC(C)C(c1cncnc1C(F)(F)F)N(C)C(=O)COc1ccc(F)cc1 (racemic) [Compound 1-127] | 4 | 5 | 5 | 5 | 5 | – | – | – | – | – | – | – | –
6 | COc1ccc(CC(=O)N(C)C(c2cncnc2C(F)(F)F)C(C)C)cc1 (racemic) [Compound 1-9] | 5 | 5 | 5 | 5 | 5 | – | – | – | – | – | – | – | –
7 | C#CCN(C(=O)Cc1ccccc1)C(c1cncnc1C(F)(F)F)C(C)C (racemic) [1-193] | 5 | 5 | – | 5 | – | 5 | 5 | – | – | – | – | – | –
8 | CCN(C(=O)Cc1ccc(F)cc1)C(c1cncnc1C(F)(F)F)C(C)C (racemic) [Compound 1-27] | 4 | 5 | 5 | 5 | 5 | – | – | – | – | – | – | – | –
9 | CN(C(=O)Cc1ccccc1)C(c1cncnc1C(F)(F)F)C(C)(C)C (racemic) [1-196] | 5 | 5 | – | 5 | – | 5 | 5 | – | – | – | – | – | –
10 | CC(C)C(c1cncnc1C(F)(F)F)N(C)C(=O)Cc1ccc(C(F)(F)F)cc1 (racemic) [Compound 1-24] | 4 | 5 | 5 | 5 | 5 | – | – | – | – | – | – | – | –
11 | CC(C)C(c1cncnc1C(F)(F)F)N(C)C(=O)Cc1ccc(F)cc1 (racemic) [Compound 1-12] | 5 | 5 | 5 | 5 | 5 | – | – | – | – | – | – | – | –
12 | COc1ccc(C(C)C(=O)N(C)C(c2cncnc2C(F)(F)F)C(C)C)cc1 (mixture of isomers) [1-192] | 4 | 5 | – | 5 | – | 5 | 5 | – | – | – | – | – | –
13 | CN(C(=O)Cc1ccc(F)cc1)C(c1cncnc1C(F)(F)Cl)C1CC1 (racemic) [Compound 1-92] | 5 | 5 | – | 5 | – | – | – | – | – | – | – | – | –
14 | CC(C)C(c1cncnc1C(F)(F)F)N(C)C(=S)Cc1ccc(F)cc1 (racemic) [Compound 1-143] | 4 | 5 | – | 5 | – | 5 | 5 | – | – | – | – | – | –
15 | Cc1ccc(CC(=O)N(C)C(c2cncnc2C)C(C)(C)C)cc1 (racemic) [Compound 1-162] | – | 5 | – | 4 | – | 5 | 5 | 0 | 5 | 5 | – | – | –
16 | CCCN(C(=O)Cc1ccccc1)C(c1cncnc1C(F)(F)F)C(C)C (racemic) [Compound 1-63] | – | 5 | 5 | 5 | 5 | – | – | – | – | – | 1 | 5 | 5
17 | Cc1ccc(C(c2cncnc2C(F)(F)F)N(C)C(=O)Cc2ccc(F)cc2)cc1 (racemic) [1-226] | – | 5 | – | 4 | – | 5 | 5 | 1 | 5 | 5 | – | – | –
18 | CCC(C)C(c1cncnc1C(F)(F)F)N(C)C(=O)Cc1ccccc1 (mixture of isomers) [Compound 1-57] | 5 | 5 | 5 | 5 | 5 | – | – | – | – | – | – | – | –
19 | COc1ccc(CC(=O)N(C)C(c2cncnc2C(F)(F)Cl)C(C)C)cc1 (racemic) [Compound 1-16] | – | 4 | 5 | 5 | 5 | – | – | – | – | – | 1 | 5 | 5
20 | CC(C)C(c1cncnc1C(F)(F)F)N(C)C(=O)Cc1cccc(F)c1 (racemic) [Compound 1-66] | 5 | 5 | 5 | 5 | 5 | – | – | – | – | – | – | – | –
21 | CC(C)C(c1cncnc1C(F)F)N(C)C(=O)Cc1ccc(F)cc1 (racemic) [Compound 1-164] | 4 | 5 | – | 5 | – | 5 | 5 | – | – | – | – | – | –
22 | CC(C)C(c1cncnc1C(F)(F)F)N(C)C(=O)Cc1ccc(F)c(F)c1 (racemic) [Compound 1-122] | 4 | 5 | 5 | 5 | 5 | – | – | – | – | – | – | – | –
23 | Cc1ncncc1C(N(C)C(=O)Cc1ccc(Cl)cc1)C(C)(C)C (racemic) [Compound 1-161] | – | 5 | – | 5 | – | 5 | 5 | 0 | 5 | 5 | – | – | –
24 | CC(C)C(c1cncnc1C(F)(F)F)N(C)C(=O)Sc1ccccc1 (racemic) [Compound 1-10] | 4 | 4 | 5 | 4 | 5 | – | – | – | – | – | – | – | –
25 | Cc1ccc(CC(=O)N(C)C(c2cncnc2C(C)C)C(C)C)cc1 (racemic) [Compound 1-131] | – | 5 | – | 5 | – | 5 | 5 | 1 | 5 | 5 | – | – | –
26 | CC(C)C(c1cncnc1C(F)(F)F)N(C)C(=O)Cc1ccccc1Cl (racemic) [Compound 1-20] | – | 5 | 5 | 5 | 5 | – | – | – | – | – | 1 | 5 | 5
27 | CCc1ccc(CC(=O)N(C)C(c2cncnc2C(F)(F)F)C(C)C)cc1 (racemic) [Compound 1-67] | – | 5 | 5 | 5 | 5 | – | – | – | – | – | 1 | 5 | 5
